Common to all, as to assay: relative viability (nuclei count vs DMSO), 5 days (fraction); higher = more cells survive
Compound in the experiment “Quizartinib + Tozasertib”: CC(C)(C)c1cc(NC(=O)Nc2ccc(-c3cn4c(n3)sc3cc(OCCN5CCOCC5)ccc34)cc2)no1 [Quizartinib] + Cc1cc(Nc2cc(N3CCN(C)CC3)nc(Sc3ccc(NC(=O)C4CC4)cc3)n2)n[nH]1 [Tozasertib] (partner 0.1 µM)
An outline of the steps:
(§1)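 Nuclei were stained with Hoechst during a one-step fixation (final 0.05% Triton X-100, 1% formaldehyde, 1 ug/ml Hoechst) carried out 5 days after dosing, then counted on 4× images. The cells, lung cancer lines in 1536-well plates, had been dosed by pin tool the day after seeding with one drug alone or a fixed anchor-drug dose plus five library-drug doses (not always all listed) in √10 steps. Relative viability is the nuclei count in treated wells divided by that in vehicle wells, and each value is the median of duplicate plates.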

Compound in the experiment “Quizartinib + Pictilisib”: CC(C)(C)c1cc(NC(=O)Nc2ccc(-c3cn4c(n3)sc3cc(OCCN5CCOCC5)ccc34)cc2)no1 [Quizartinib] + CS(=O)(=O)N1CCN(Cc2cc3nc(-c4cccc5[nH]ncc45)nc(N4CCOCC4)c3s2)CC1 [Pictilisib] (partner 1 µM)
An outline of the steps: as §1

Compound in the experiment “Quizartinib + Linsitinib”: CC(C)(C)c1cc(NC(=O)Nc2ccc(-c3cn4c(n3)sc3cc(OCCN5CCOCC5)ccc34)cc2)no1 [Quizartinib] + C[C@]1(O)C[C@@H](c2nc(-c3ccc4ccc(-c5ccccc5)nc4c3)c3c(N)nccn32)C1 [Linsitinib] (partner 1 µM)
An outline of the steps:
as §1

Compound in the experiment “Quizartinib + OSI-027”: CC(C)(C)c1cc(NC(=O)Nc2ccc(-c3cn4c(n3)sc3cc(OCCN5CCOCC5)ccc34)cc2)no1 [Quizartinib] + COc1cccc2cc(-c3nc([C@H]4CC[C@H](C(=O)O)CC4)n4ncnc(N)c34)[nH]c12 [OSI-027] (partner 0.5 µM)
An outline of the steps: as §1

As for PC-3 [JPC-3], the relative viability with Quizartinib + Tozasertib (first compound 0.001 µM) is 0.835; with Quizartinib + Tozasertib (first compound 0.003162 µM), 0.849; with Quizartinib + Tozasertib (first compound 0.01 µM), 0.909; with Quizartinib + Tozasertib (first compound 0.03162 µM) it was 0.849; with Quizartinib + Tozasertib (first compound 0.1 µM) it was 0.852; in the experiment with Quizartinib + Pictilisib (first compound 0.001 µM), 0.656. The relative viability came out at 0.794 with Quizartinib + Pictilisib (first compound 0.003162 µM); 0.834 with Quizartinib + Pictilisib (first compound 0.01 µM); 0.733 with Quizartinib + Pictilisib (first compound 0.03162 µM); 0.73 with Quizartinib + Pictilisib (first compound 0.1 µM); 0.853 with Quizartinib + Linsitinib (first compound 0.001 µM); 0.951 with Quizartinib + Linsitinib (first compound 0.003162 µM). Besides, the relative viability in the experiment with Quizartinib + Linsitinib (first compound 0.01 µM) was 0.931; in the experiment with Quizartinib + Linsitinib (first compound 0.03162 µM), 0.988; with Quizartinib + Linsitinib (first compound 0.1 µM), 0.933; in the experiment with Quizartinib + OSI-027 (first compound 0.001 µM) it was 0.692; with Quizartinib + OSI-027 (first compound 0.003162 µM), 0.747; with Quizartinib + OSI-027 (first compound 0.01 µM), 0.782. Also, the values for the relative viability in the experiment with Quizartinib + OSI-027 (first compound 0.03162 µM) and with Quizartinib + OSI-027 (first compound 0.1 µM) were 0.757 and 0.698, respectively.

With PC-14, the relative viability with Quizartinib + Tozasertib (first compound 0.001 µM) was determined as 0.555; with Quizartinib + Tozasertib (first compound 0.003162 µM), 0.551; with Quizartinib + Tozasertib (first compound 0.01 µM), 0.584; in the experiment with Quizartinib + Tozasertib (first compound 0.03162 µM), 0.556; with Quizartinib + Tozasertib (first compound 0.1 µM) it was 0.558; in the experiment with Quizartinib + Pictilisib (first compound 0.001 µM), 0.634. The relative viability with Quizartinib + Pictilisib (first compound 0.003162 µM) turned out to be 0.633; with Quizartinib + Pictilisib (first compound 0.01 µM) it was 0.752; with Quizartinib + Pictilisib (first compound 0.03162 µM), 0.576; in the experiment with Quizartinib + Pictilisib (first compound 0.1 µM) it was 0.681; with Quizartinib + Linsitinib (first compound 0.001 µM), 0.922; with Quizartinib + Linsitinib (first compound 0.003162 µM), 0.875. Moreover, the relative viability with Quizartinib + Linsitinib (first compound 0.01 µM) turned out to be 0.942; with Quizartinib + Linsitinib (first compound 0.03162 µM), 0.986; with Quizartinib + Linsitinib (first compound 0.1 µM) it was 0.99; with Quizartinib + OSI-027 (first compound 0.001 µM), 0.737; with Quizartinib + OSI-027 (first compound 0.003162 µM), 0.754; with Quizartinib + OSI-027 (first compound 0.01 µM), 1. Moreover, in the experiment with Quizartinib + OSI-027 (first compound 0.1 µM), the relative viability was found to be 0.882.

In the case of RERF-LC-KJ, the relative viability with Quizartinib + Tozasertib (first compound 0.001 µM) was found to be 0.47; with Quizartinib + Tozasertib (first compound 0.003162 µM), 0.445; with Quizartinib + Tozasertib (first compound 0.01 µM) it was 0.53; in the experiment with Quizartinib + Tozasertib (first compound 0.03162 µM), 0.248; in the experiment with Quizartinib + Tozasertib (first compound 0.1 µM) it was 0.337; with Quizartinib + Pictilisib (first compound 0.001 µM), 0.468. Moreover, the relative viability came to 0.586 with Quizartinib + Pictilisib (first compound 0.003162 µM); 0.735 with Quizartinib + Pictilisib (first compound 0.01 µM); 0.538 with Quizartinib + Pictilisib (first compound 0.03162 µM); 0.515 with Quizartinib + Pictilisib (first compound 0.1 µM); 0.79 in the experiment with Quizartinib + Linsitinib (first compound 0.001 µM); 0.878 with Quizartinib + Linsitinib (first compound 0.003162 µM). In addition, the relative viability stood at 0.941 in the experiment with Quizartinib + Linsitinib (first compound 0.01 µM); 0.843 with Quizartinib + Linsitinib (first compound 0.03162 µM); 0.92 with Quizartinib + Linsitinib (first compound 0.1 µM); 0.536 with Quizartinib + OSI-027 (first compound 0.001 µM); 0.534 with Quizartinib + OSI-027 (first compound 0.003162 µM); 0.592 with Quizartinib + OSI-027 (first compound 0.01 µM). The relative viability in the experiment with Quizartinib + OSI-027 (first compound 0.03162 µM) turned out to be 0.341; with Quizartinib + OSI-027 (first compound 0.1 µM), 0.521.

Turning to SK-LU-1, the relative viability amounted to 0.268 with Quizartinib + Tozasertib (first compound 0.001 µM); 0.303 in the experiment with Quizartinib + Tozasertib (first compound 0.003162 µM); 0.378 with Quizartinib + Tozasertib (first compound 0.01 µM); 0.319 in the experiment with Quizartinib + Tozasertib (first compound 0.03162 µM); 0.309 with Quizartinib + Tozasertib (first compound 0.1 µM); 0.545 in the experiment with Quizartinib + Pictilisib (first compound 0.001 µM). Further, the relative viability with Quizartinib + Pictilisib (first compound 0.003162 µM) was 0.547; with Quizartinib + Pictilisib (first compound 0.01 µM) it was 0.606; in the experiment with Quizartinib + Pictilisib (first compound 0.03162 µM) it was 0.491; in the experiment with Quizartinib + Pictilisib (first compound 0.1 µM), 0.588; in the experiment with Quizartinib + Linsitinib (first compound 0.001 µM), 0.941; with Quizartinib + Linsitinib (first compound 0.003162 µM), 1.07. The relative viability with Quizartinib + Linsitinib (first compound 0.01 µM) was 1.31; with Quizartinib + Linsitinib (first compound 0.03162 µM), 1.11; with Quizartinib + Linsitinib (first compound 0.1 µM), 0.906; in the experiment with Quizartinib + OSI-027 (first compound 0.001 µM) it was 0.316; with Quizartinib + OSI-027 (first compound 0.003162 µM), 0.312; in the experiment with Quizartinib + OSI-027 (first compound 0.01 µM) it was 0.377. Further, the relative viability with Quizartinib + OSI-027 (first compound 0.03162 µM) was 0.35; with Quizartinib + OSI-027 (first compound 0.1 µM), 0.37.

Take SK-MES-1: the relative viability with Quizartinib + Tozasertib (first compound 0.001 µM) stood at 0.852; with Quizartinib + Tozasertib (first compound 0.003162 µM), 0.904; in the experiment with Quizartinib + Tozasertib (first compound 0.01 µM), 0.864; in the experiment with Quizartinib + Tozasertib (first compound 0.1 µM), 0.77; with Quizartinib + Pictilisib (first compound 0.001 µM), 0.244; in the experiment with Quizartinib + Pictilisib (first compound 0.003162 µM), 0.329. Further, the relative viability with Quizartinib + Pictilisib (first compound 0.01 µM) came to 0.391; in the experiment with Quizartinib + Pictilisib (first compound 0.03162 µM), 0.363; with Quizartinib + Pictilisib (first compound 0.1 µM) it was 0.365; with Quizartinib + Linsitinib (first compound 0.001 µM), 1.03; in the experiment with Quizartinib + Linsitinib (first compound 0.003162 µM), 1; with Quizartinib + Linsitinib (first compound 0.01 µM), 1.14. Moreover, the relative viability with Quizartinib + Linsitinib (first compound 0.03162 µM) worked out at 0.975; with Quizartinib + Linsitinib (first compound 0.1 µM), 0.996; in the experiment with Quizartinib + OSI-027 (first compound 0.001 µM), 0.538; in the experiment with Quizartinib + OSI-027 (first compound 0.003162 µM), 0.582; in the experiment with Quizartinib + OSI-027 (first compound 0.01 µM), 0.658; with Quizartinib + OSI-027 (first compound 0.1 µM), 0.622.

Take SW 1573: the relative viability in the experiment with Quizartinib + Tozasertib (first compound 0.001 µM) was 0.163; with Quizartinib + Tozasertib (first compound 0.003162 µM), 0.175; with Quizartinib + Tozasertib (first compound 0.01 µM), 0.225; with Quizartinib + Tozasertib (first compound 0.1 µM), 0.265; in the experiment with Quizartinib + Pictilisib (first compound 0.001 µM), 0.474; with Quizartinib + Pictilisib (first compound 0.003162 µM), 0.432. Moreover, the relative viability turned out to be 0.516 in the experiment with Quizartinib + Pictilisib (first compound 0.01 µM); 0.325 with Quizartinib + Pictilisib (first compound 0.03162 µM); 0.475 with Quizartinib + Pictilisib (first compound 0.1 µM); 0.738 with Quizartinib + Linsitinib (first compound 0.001 µM); 0.691 in the experiment with Quizartinib + Linsitinib (first compound 0.003162 µM); 0.81 with Quizartinib + Linsitinib (first compound 0.01 µM). The relative viability is 0.642 with Quizartinib + Linsitinib (first compound 0.03162 µM); 0.8 with Quizartinib + Linsitinib (first compound 0.1 µM); 0.423 with Quizartinib + OSI-027 (first compound 0.001 µM); 0.59 with Quizartinib + OSI-027 (first compound 0.003162 µM); 0.573 with Quizartinib + OSI-027 (first compound 0.01 µM); 0.666 with Quizartinib + OSI-027 (first compound 0.1 µM).

In the case of UMC-11, the relative viability in the experiment with Quizartinib + Tozasertib (first compound 0.003162 µM) was found to be 0.194; with Quizartinib + Tozasertib (first compound 0.01 µM) it was 0.204; in the experiment with Quizartinib + Tozasertib (first compound 0.03162 µM) it was 0.223; with Quizartinib + Tozasertib (first compound 0.1 µM) it was 0.222; with Quizartinib + Pictilisib (first compound 0.001 µM), 0.522; with Quizartinib + Pictilisib (first compound 0.003162 µM), 0.779. Besides, the relative viability in the experiment with Quizartinib + Pictilisib (first compound 0.01 µM) was found to be 0.836; with Quizartinib + Pictilisib (first compound 0.03162 µM) it was 0.742; with Quizartinib + Pictilisib (first compound 0.1 µM), 0.885; with Quizartinib + Linsitinib (first compound 0.001 µM), 1.05; in the experiment with Quizartinib + Linsitinib (first compound 0.003162 µM), 0.964; with Quizartinib + Linsitinib (first compound 0.01 µM), 1.06. Moreover, the relative viability was 0.914 in the experiment with Quizartinib + Linsitinib (first compound 0.03162 µM); 1.02 in the experiment with Quizartinib + Linsitinib (first compound 0.1 µM); 0.383 with Quizartinib + OSI-027 (first compound 0.003162 µM); 0.46 with Quizartinib + OSI-027 (first compound 0.01 µM); 0.466 with Quizartinib + OSI-027 (first compound 0.03162 µM); 0.467 in the experiment with Quizartinib + OSI-027 (first compound 0.1 µM).

(Values after the supplement of paper PMC10307832.)
